Results reported in patent US20240400584A1, “COMPOUNDS AND METHODS FOR MODULATING SPLICING” (REMIX THERAPEUTICS INC., priority 2021, published 2024).
pIC50: −log10 of the molar value.

Key:
HTT [1] = assay: Gene panel canonical junction qPCR assay, HTT CJ mRNA (Table 7); format: cell-based, human; conditions: Homo sapiens, read-out: HTT CJ mRNA decrease IC50
Description: (§1) Compounds described herein were used to modulate RNA transcript abundance in cells. The expression of a target mRNA was measured by detecting the formation of an exon-exon junction in the canonical transcript (CJ). A compound mediated exon-inclusion event was detected by observing an increase in formation OF A new junction with an alternative exon (AJ). Real-time qPCR assays were used to detect these splicing switches and interrogate the potency of various compounds towards different target Genes. A high-throughput real time quantitative PCR (RT-qPCR) assay was developed to measure these two isoforms of the mRNA (CJ and AJ) for exemplary genes, such as HTT, SMN2, and MYB, together with a control housekeeping gene, GAPDH or GUSB or PPIA, used for normalization. Briefly, the A673 or K562 cell line was treated with various compounds described herein (e.g., compounds of Formula (i)). After treatment, the levels of the HTT, MYB, or SMN2 mRNA targets were determined from each sample of cell lysate by cDNA synthesis followed by qPCR.
(§2) The data analysis was performed by first determining the ΔCt vs the housekeeper gene. This ΔCt was then normalized against the DMSO control (ΔΔCt) and converted to RQ (relative quantification) using the 2^(−ΔΔCt) equation. The RQ were then converted to a percentage response by arbitrarily setting an assay window of 3.5 and 4.0 ΔCt for HTT-CJ and MYB-CJ respectively and an assay window of 9 and 3 ΔCt for HTT-AJ and MYB-AJ in 96 well format (50,000 K562 cells/well and 15,000 A673 cells per well) and an assay window of 3 and 4 ΔCt for HTT-CJ and MYB-CJ respectively and an assay window of 5 and 3 ΔCt for HTT-AJ and MYB-AJ respectively in 384 well format (8,000 K562 cells/well example). […] The percentage response was then fitted to the 4 parametric logistic equation to evaluate the concentration dependence of compound treatment. The increase in AJ mRNA is reported as AC50 (compound concentration having 50% response in AJ increase) while the decrease in CJ mRNA levels is reported as IC50 (compound concentration having 50% response in CJ decrease).
(§3) Additional studies were carried out for a larger panel of genes using the protocol provided above. The junction between flanking upstream and downstream exons was used to design canonical junction qPCR assays. At least one of the forward primer, reverse primer or the CY5-labeled 5′ nuclease probe (with 3′ quencher such as ZEN/Iowa Black FQ) was designed to overlap with the exon junction to capture the CJ mRNA transcript. BLAST was used to confirm the specificity of the probeset and parameters such as melting temperature, GC content, amplicon size, and primer dimer formation are considered during their design. Data for the decrease in CJ mRNA levels for four exemplary genes (HTT, SMN2, MYB, and Target C) analyzed in this panel are reported as IC50 (compound concentration having 50% response in CJ decrease).

MYB [2] = assay: RT-qPCR splicing assay, MYB AJ/CJ mRNA; format: cell-based; conditions: Homo sapiens, A673 or K562 cells, 24 hours; for pIC50: decrease in canonical junction mRNA; for AC50: increase in alternative junction mRNA
Description: as §1
(§4) The A673 cell line was cultured in DMEM with 10% FBS. Cells were diluted with full growth media and plated in a 96-well plate (15,000 cells in 100 ul media per well). The plate was incubated at 37° C. with 5% CO2 for 24 hours to allow cells to adhere. An 11-point 3-fold serial dilution of the compounds was made in DMSO then diluted in media in an intermediate plate. Compounds were transferred from the intermediate plate to the cell plate with the top dose at a final concentration of 10 uM in the well. Final DMSO concentration was kept at or below 0.25%. The cell plate was returned to the incubator at 37° C. with 5% CO2 for an additional 24 hours.
(§5) The K562 cell line was cultured in IMDM with 10% FBS. For K562, cells were diluted with full growth media and plated in either a 96-well plate (50,000 cells in 50 uL media per well) or a 384-well plate (8,000-40,000 cells in 45 uL media per well). An 11-point 3-fold serial dilution of the compounds were made in DMSO then diluted in media in an intermediate plate. Compound was transferred from the intermediate plate to the cell plate with the top dose at a final concentration of 10 uM in the well. Final DMSO concentration was kept at or below 0.25%. Final volume was 100 uL for 96-well plate and 50 uL for 384-well plate. The cell plate was then placed in an incubator at 37° C. with 5% CO2 for 24 hours.
(§6) The cells were then gently washed with 50 uL-100 uL Cold Pbs before proceeding to addition of lysis buffer. 30 uL-50 μL of room temperature lysis buffer with DNAse I (and optionally RNAsin) was added to each well. Cells were shaken/mixed thoroughly at room temperature for 5-10 minutes for lysis to take place and then 3 uL-5 μL of room temperature stop solution was added and wells were shaken/mixed again. After 2-5 minutes, the cell lysate plate was transferred to ice for RT-qPCR reaction setup. The lysates could also be frozen at −80° C. for later use.
(§7) In some cases, a direct lysis buffer was used. an appropriate volume of 3× lysis buffer (10 mM tRis, 150 mM NaCl, 1.5%-2.5% Igepal and 0.1-1 U/uL RNAsin, pH 7.4) was directly added to either K562 or A673 cells in media and mixed by pipetting 3 times. The plates were then incubated at room temperature with shaking/rocking for 20-50 minutes to allow for lysis to take place. After this time, the cell lysate plate was transferred to ice to set up for the RT-qPCR reactions. The lysates could also be frozen at −80° C. for later use.
(§8) To set up 10 uL RT-QpcR reactions, cell lysates were transferred to 384-well qPCR plates containing the master mix according to the table below. The plates were sealed, gently vortexed, and spun down before the run. The volumes were adjusted accordingly in some instances where the reaction was carried in 20 µL. The table below summarizes the components of the RT-qPCR reactions:
(§9) The RT-qPCR reaction was performed using a QuantStudio (ThermoFisher) under the following fast cycling conditions. […]

HTT [3] = assay: RT-qPCR splicing assay, HTT AJ/CJ mRNA; format: cell-based, human; conditions: Homo sapiens, 24 h, A673 or K562 cells; for pIC50: decrease in canonical junction mRNA; for AC50: increase in alternative junction mRNA
Description: as §1, §4, §5, §6, §7, §8, §9

Target C = assay: Gene panel canonical junction qPCR assay, Target C CJ mRNA (Table 7); format: cell-based, human; conditions: Homo sapiens, read-out: Target C CJ mRNA decrease IC50
Description: as §1, §2, §3

SMN2 = assay: Gene panel canonical junction qPCR assay, SMN2 CJ mRNA (Table 7); format: cell-based; conditions: Homo sapiens, read-out: SMN2 CJ mRNA decrease IC50
Description: as §1, §2, §3

MYB [4] = assay: Gene panel canonical junction qPCR assay, MYB CJ mRNA (Table 7); format: cell-based; conditions: Homo sapiens, read-out: MYB CJ mRNA decrease IC50
Description: as §1, §2, §3

SMILES | pIC50 (HTT [1]) | pIC50 (MYB [2]) | AC50 (MYB [2]) | pIC50 (HTT [3]) | AC50 (HTT [3]) | pIC50 (Target C) | pIC50 (SMN2) | pIC50 (MYB [4])
CC1(C)CC(Nc2ccc3c(n2)CCOc2cc(-n4cccn4)ccc2-3)CC(C)(C)N1 [Compound 137] | < 5.00 | < 5.00 | > 10 µM | 5.00 to 6.00 | 1 to 10 µM | 5.00 to 6.00 | < 5.00 | < 5.00
c1cnn(-c2ccc3c(c2)OCCc2cc(N[C@@H]4C[C@H]5CC[C@@H](C4)N5)ccc2-3)c1 [Compound 139] | < 5.00 | < 5.00 | > 10 µM | < 5.00 | > 10 µM | < 5.00 | < 5.00 | < 5.00
CN(c1ccc2c(n1)OCc1cc(-c3cnn(C)c3)ccc1-2)[C@@H]1C[C@H]2CC[C@@H](C1)N2 [Compound 150] | > 7.00 | 6.00 to 7.00 | 0.1 to 1 µM | > 7.00 | < 0.1 µM | 6.00 to 7.00 | < 5.00 | 6.00 to 7.00
c1cnn(-c2ccc3c(c2)COc2nc(N4CC5(CCNCC5)C4)ccc2-3)c1 [Compound 167] | < 5.00 | < 5.00 | > 10 µM | < 5.00 | > 10 µM | < 5.00 | < 5.00 | < 5.00
c1cnn(-c2ccc3c(c2)COc2nc(N4CC5(CCCNC5)C4)ccc2-3)c1 [Compound 168] | < 5.00 | < 5.00 | > 10 µM | < 5.00 | > 10 µM | < 5.00 | < 5.00 | < 5.00
c1cnn(-c2ccc3c(c2)COc2nc(N4CCC5(CC4)CNC5)ccc2-3)c1 [Compound 169] | 6.00 to 7.00 | 6.00 to 7.00 | 0.1 to 1 µM | 6.00 to 7.00 | 0.1 to 1 µM | 6.00 to 7.00 | 6.00 to 7.00 | 6.00 to 7.00
CN1C[C@@H]2CN(c3ccc4c(n3)OCc3cc(-n5cccn5)ccc3-4)C[C@@H]2C1 [Compound 170] | 5.00 to 6.00 | < 5.00 | 1 to 10 µM | 5.00 to 6.00 | 1 to 10 µM | < 5.00 | 5.00 to 6.00 | < 5.00
CC1(C)CC(Oc2ccc3c(n2)OCc2cc(-n4cccn4)ccc2-3)CC(C)(C)N1 [Compound 171] | 5.00 to 6.00 | 5.00 to 6.00 | 1 to 10 µM | 5.00 to 6.00 | 1 to 10 µM | 5.00 to 6.00 | 6.00 to 7.00 | 5.00 to 6.00
CN(c1ccc2c(n1)OCc1cc(-n3cc(N)cn3)ccc1-2)[C@@H]1C[C@H]2CC[C@@H](C1)N2 [Compound 172] | 6.00 to 7.00 | 6.00 to 7.00 | 0.1 to 1 µM | 6.00 to 7.00 | 0.1 to 1 µM | 6.00 to 7.00 | > 7.00 | 6.00 to 7.00
c1cnn(-c2ccc3c(c2)COc2nc(N4CCNCC4)ccc2-3)c1 [Compound 173] | < 5.00 | < 5.00 | > 10 µM | < 5.00 | > 10 µM | < 5.00 | 5.00 to 6.00 | < 5.00
c1cnn(-c2ccc3c(c2)COc2nc(NC4CCNCC4)ccc2-3)c1 [Compound 174] | < 5.00 | < 5.00 | > 10 µM | < 5.00 | > 10 µM | < 5.00 | 5.00 to 6.00 | < 5.00
CN(c1ccc2c(n1)OCc1cc(-n3cccn3)ccc1-2)C1CCNCC1 [Compound 175] | < 5.00 | < 5.00 | > 10 µM | < 5.00 | 1 to 10 µM | < 5.00 | 5.00 to 6.00 | < 5.00
[2H]C([2H])([2H])N(c1ccc2c(n1)OCc1cc(-n3cccn3)ccc1-2)C1CCNCC1 [Compound 176] | 5.00 to 6.00 | < 5.00 | > 10 µM | 5.00 to 6.00 | 1 to 10 µM | < 5.00 | 5.00 to 6.00 | < 5.00
CCN(c1ccc2c(n1)OCc1cc(-n3cccn3)ccc1-2)C1CCNCC1 [Compound 177] | < 5.00 | < 5.00 | > 10 µM | < 5.00 | > 10 µM | < 5.00 | < 5.00 | < 5.00
CN(c1ccc2c(n1)OCc1cc(-n3cccn3)ccc1-2)[C@@H]1C[C@H]2CCC[C@@H](C1)N2 [Compound 178] | > 7.00 | 6.00 to 7.00 | < 0.1 µM | > 7.00 | < 0.1 µM | 6.00 to 7.00 | > 7.00 | 6.00 to 7.00
c1cnn(-c2ccc3c(c2)COc2nc(N[C@@H]4C[C@H]5CC[C@@H](C4)N5)ccc2-3)c1 [Compound 179] | 6.00 to 7.00 | 6.00 to 7.00 | 0.1 to 1 µM | 6.00 to 7.00 | 0.1 to 1 µM | 6.00 to 7.00 | 6.00 to 7.00 | 6.00 to 7.00
CN(c1ccc2c(n1)OCc1cc(-n3cccn3)ccc1-2)[C@H]1C[C@]2(C)CC[C@](C)(C1)N2 [Compound 180] | > 7.00 | 6.00 to 7.00 | 0.1 to 1 µM | > 7.00 | < 0.1 µM | 6.00 to 7.00 | > 7.00 | 6.00 to 7.00
c1cnn(-c2ccc3c(c2)COc2nc(N4CCCC5(CNC5)C4)ccc2-3)c1 [Compound 181] | < 5.00 | < 5.00 | > 10 µM | < 5.00 | > 10 µM | < 5.00 | < 5.00 | < 5.00
